Test results reported in PubChem BioAssay AID330 (DTP/NCI, 2004).
“And” between values parts separate entries of the source, which are not always exact repeats. Equal entries are not always repeated. Toxic doses and inconclusive results are not listed. How the source made its calls: active means survival T/C of 150% or more; inactive means T/C below 125% in these data.

System: P388 leukemia ip, CD2F1 mice, survival T/C
Assay: NCI In Vivo Anticancer Drug Screen. Data for tumor model P388 Leukemia (intraperitoneal) in CD2F1 (CDF1) mice
Settings: endpoint: median survival time, higher = longer survival
Procedure, shortened: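 Mice carrying the transplanted tumor received test compound or vehicle. Survival was recorded in each group, and the value is the treated-group measurement divided by that of the vehicle-treated control group.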

[1] = dose: 50.0 mg/kg/injection, schedule: Q01DX005 (ip), vehicle: saline with Tween-80
[2] = dose: 100.0 mg/kg/injection, schedule: Q01DX005 (ip), vehicle: saline with Tween-80
[3] = dose: 25.0 mg/kg/injection, schedule: Q01DX009 (ip), vehicle: saline
[4] = dose: 50.0 mg/kg/injection, schedule: Q01DX009 (ip), vehicle: saline
[5] = dose: 100.0 mg/kg/injection, schedule: Q01DX009 (ip), vehicle: saline
[6] = dose: 50.0 mg/kg/injection, schedule: Q01DX005 (ip), vehicle: Klucel (hydroxypropylcellulose) (HPC)
[7] = dose: 100.0 mg/kg/injection, schedule: Q01DX005 (ip), vehicle: Klucel (hydroxypropylcellulose) (HPC)
[8] = dose: 200.0 mg/kg/injection, schedule: Q01DX005 (ip), vehicle: Klucel (hydroxypropylcellulose) (HPC)
[9] = dose: 50.0 mg/kg/injection, schedule: Q01DX009 (ip), vehicle: saline with Tween-80
[10] = dose: 100.0 mg/kg/injection, schedule: Q01DX009 (ip), vehicle: saline with Tween-80

Measured: T/C

CCC(C)C1NC(=O)C(NC(=O)c2c3nc4c(C(=O)NC5C(=O)NC(C(C)CC)C(=O)N6CCCC6C(=O)N(C)CC(=O)N(C)C(C(C)C)C(=O)OC5C)ccc(C)c4oc-3c(C)c(=O)c2Cl)C(C)OC(=O)C(C(C)C)N(C)C(=O)CN(C)C(=O)C2CCCN2C1=O (stereo not given)
inactive: dose: 0.05 mg/kg/injection, schedule: Q01DX009 (ip), vehicle: water 92 % of control | dose: 0.1 mg/kg/injection, schedule: Q01DX009 (ip), vehicle: water 96 % of control | dose: 0.2 mg/kg/injection, schedule: Q01DX009 (ip), vehicle: water 99 % of control | dose: 0.4 mg/kg/injection, schedule: Q01DX009 (ip), vehicle: water 102 % of control and 111 % of control | dose: 0.8 mg/kg/injection, schedule: Q01DX009 (ip), vehicle: water 118 % of control
active: dose: 3.2 mg/kg/injection, schedule: Q01DX009 (ip), vehicle: water 155 % of control | dose: 6.4 mg/kg/injection, schedule: Q01DX009 (ip), vehicle: water 174 % of control

C=CCOc1cc2c(cc1C(CC)c1ccc(OCc3ccccc3)cc1)OCO2 (stereo not given)
inactive: [1] 102 % of control | [2] 100 % of control | dose: 200.0 mg/kg/injection, schedule: Q01DX005 (ip), vehicle: saline with Tween-80 95 % of control

CCN(CC)CCNc1ccc(COC(=O)NC)c2oc3ccc(OS(=O)(=O)c4ccc(C)cc4)cc3c(=O)c12
inactive: dose: 25.0 mg/kg/injection, schedule: Q01DX005 (ip), vehicle: water 89 % of control | dose: 50.0 mg/kg/injection, schedule: Q01DX005 (ip), vehicle: water 93 % of control | dose: 100.0 mg/kg/injection, schedule: Q01DX005 (ip), vehicle: water 90 % of control | dose: 200.0 mg/kg/injection, schedule: Q01DX005 (ip), vehicle: water 93 % of control

CC(=O)CC(=O)CCC(=O)O
inactive: [3] 100 % of control | [4] 105 % of control | [5] 110 % of control | dose: 200.0 mg/kg/injection, schedule: Q01DX009 (ip), vehicle: saline 117 % of control | dose: 400.0 mg/kg/injection, schedule: Q01DX009 (ip), vehicle: saline 94 % of control

C=CCN1CCc2c([nH]c3cc(OC)ccc23)C1C (stereo not given)
inactive: dose: 9.0 mg/kg/injection, schedule: Q01DX005 (ip), vehicle: Klucel (hydroxypropylcellulose) (HPC) 95 % of control | dose: 18.0 mg/kg/injection, schedule: Q01DX005 (ip), vehicle: Klucel (hydroxypropylcellulose) (HPC) 94 % of control | dose: 36.0 mg/kg/injection, schedule: Q01DX005 (ip), vehicle: Klucel (hydroxypropylcellulose) (HPC) 89 % of control | dose: 72.0 mg/kg/injection, schedule: Q01DX005 (ip), vehicle: Klucel (hydroxypropylcellulose) (HPC) 94 % of control | dose: 144.0 mg/kg/injection, schedule: Q01DX005 (ip), vehicle: Klucel (hydroxypropylcellulose) (HPC) 94 % of control

COc1ccc2cc1Oc1ccc(cc1)C[C@H]1c3cc(c(OC)cc3CCN1C)Oc1c(OC)c(OC)cc3c1[C@H](C2)N(C)CC3
inactive: dose: 12.5 mg/kg/injection, schedule: Q01DX009 (ip), vehicle: other 94 % of control and 95 % of control | dose: 25.0 mg/kg/injection, schedule: Q01DX009 (ip), vehicle: other 100 % of control and 97 % of control | dose: 25.0 mg/kg/injection, schedule: Q04DX003 (ip), vehicle: suspension in saline 98 % of control | dose: 50.0 mg/kg/injection, schedule: Q01DX009 (ip), vehicle: other 100 % of control and 97 % of control | dose: 50.0 mg/kg/injection, schedule: Q04DX003 (ip), vehicle: suspension in saline 88 % of control | dose: 100.0 mg/kg/injection, schedule: Q01DX009 (ip), vehicle: other 103 % of control | dose: 100.0 mg/kg/injection, schedule: Q04DX003 (ip), vehicle: suspension in saline 89 % of control | dose: 200.0 mg/kg/injection, schedule: Q04DX003 (ip), vehicle: suspension in saline 87 % of control

Cc1c(C)c(C)c(S(=O)(=O)NCCNS(=O)(=O)c2c(C)c(C)c(C)c(C)c2C)c(C)c1C
inactive: [6] 103 % of control | [7] 94 % of control | [8] 93 % of control

COC(c1cc(C(O)(C(F)(F)F)C(F)(F)F)cc(C(OC)(C(F)(F)F)C(F)(F)F)c1)(C(F)(F)F)C(F)(F)F
inactive: dose: 100.0 mg/kg/injection, schedule: Q04DX003 (ip), vehicle: Klucel (hydroxypropylcellulose) (HPC) 100 % of control | dose: 200.0 mg/kg/injection, schedule: Q04DX003 (ip), vehicle: Klucel (hydroxypropylcellulose) (HPC) 100 % of control | dose: 400.0 mg/kg/injection, schedule: Q04DX003 (ip), vehicle: Klucel (hydroxypropylcellulose) (HPC) 92 % of control

CC(=O)N1C(=O)c2ccccc2NC1(C)c1ccncc1 (stereo not given)
inactive: dose: 25.0 mg/kg/injection, schedule: Q01DX005 (ip), vehicle: Klucel (hydroxypropylcellulose) (HPC) 100 % of control | [6] 101 % of control | [7] 107 % of control | [8] 106 % of control

O=C(Cc1nc2ccccc2[nH]1)N/N=C1\SCC(=O)N1C1CCCCC1
inactive: dose: 100.0 mg/kg/injection, schedule: Q01DX001 (ip), vehicle: Klucel (hydroxypropylcellulose) (HPC) 98 % of control | dose: 200.0 mg/kg/injection, schedule: Q01DX001 (ip), vehicle: Klucel (hydroxypropylcellulose) (HPC) 100 % of control | dose: 400.0 mg/kg/injection, schedule: Q01DX001 (ip), vehicle: Klucel (hydroxypropylcellulose) (HPC) 99 % of control

O=c1oc2c(c(=O)n1-c1ccccc1)CC1(CCCCC1)C2
inactive: dose: 50.0 mg/kg/injection, schedule: Q01DX009 (ip), vehicle: Klucel (hydroxypropylcellulose) (HPC) 103 % of control | dose: 100.0 mg/kg/injection, schedule: Q01DX009 (ip), vehicle: Klucel (hydroxypropylcellulose) (HPC) 113 % of control | dose: 200.0 mg/kg/injection, schedule: Q01DX009 (ip), vehicle: Klucel (hydroxypropylcellulose) (HPC) 105 % of control

COc1ccc(/C=C/c2ccnnc2)c(OC)c1OC
inactive: [3] 102 % of control | [4] 102 % of control | [5] 105 % of control

CCOC(=O)/C=C/C(=O)NNS(=O)(=O)CCC(N)C(=O)O (stereo not given)
inactive: dose: 12.5 mg/kg/injection, schedule: Q01DX009 (ip), vehicle: water 101 % of control | dose: 25.0 mg/kg/injection, schedule: Q01DX009 (ip), vehicle: water 95 % of control | dose: 50.0 mg/kg/injection, schedule: Q01DX009 (ip), vehicle: water 100 % of control | dose: 100.0 mg/kg/injection, schedule: Q01DX009 (ip), vehicle: water 116 % of control

NC(=O)c1[nH]c(=O)[nH]c(=O)c1CSc1ccc(Cl)cc1
inactive: dose: 6.25 mg/kg/injection, schedule: Q01DX005 (ip), vehicle: saline with Tween-80 99 % of control | dose: 12.5 mg/kg/injection, schedule: Q01DX005 (ip), vehicle: saline with Tween-80 97 % of control | dose: 25.0 mg/kg/injection, schedule: Q01DX005 (ip), vehicle: saline with Tween-80 107 % of control | [1] 109 % of control | [2] 111 % of control

O=Cc1ccco1
inactive: [9] 99 % of control | [10] 101 % of control | dose: 200.0 mg/kg/injection, schedule: Q01DX009 (ip), vehicle: saline with Tween-80 118 % of control

C/C(=N\NC(=S)Nc1ccc(N(C)C)cc1)c1ccccn1
inactive: [9] 118 % of control | [10] 105 % of control

COC1(OC)C(=S)N(C(C)C)C(=S)N1C(C)C
inactive: [6] 100 % of control | [7] 96 % of control | [8] 100 % of control

COc1cc2c(c(OC)c1OC)-c1cc3c(cc1C(OC1OC(COC(C)=O)C(OC(C)=O)C(OC(C)=O)C1OC(C)=O)C1COC(=O)C1C2)OCO3 (stereo not given)
inactive: dose: 18.75 mg/kg/injection, schedule: Q01DX005 (ip), vehicle: Klucel (hydroxypropylcellulose) (HPC) 93 % of control | dose: 37.5 mg/kg/injection, schedule: Q01DX005 (ip), vehicle: Klucel (hydroxypropylcellulose) (HPC) 93 % of control | dose: 75.0 mg/kg/injection, schedule: Q01DX005 (ip), vehicle: Klucel (hydroxypropylcellulose) (HPC) 93 % of control | dose: 150.0 mg/kg/injection, schedule: Q01DX005 (ip), vehicle: Klucel (hydroxypropylcellulose) (HPC) 88 % of control

O=C1c2c3c(c4c(c2C(=O)c2c5c(c6c(c21)CCC6)CCC5)CCC4)CCC3
inactive: dose: 10.0 mg/kg/injection, schedule: Q01DX009 (ip), vehicle: saline with Tween-80 95 % of control | dose: 20.0 mg/kg/injection, schedule: Q01DX009 (ip), vehicle: saline with Tween-80 96 % of control | dose: 40.0 mg/kg/injection, schedule: Q01DX009 (ip), vehicle: saline with Tween-80 99 % of control

O=Cc1coc2ccccc2c1=O
inactive: [3] 120 % of control | [4] 110 % of control | [5] 119 % of control and 120 % of control

CN(CN(C)N=Nc1ccc(Br)cc1)CN(C)N=Nc1ccc(Br)cc1
inactive: dose: 60.0 mg/kg/injection, schedule: Q01DX005 (ip), vehicle: Klucel (hydroxypropylcellulose) (HPC) 100 % of control | dose: 120.0 mg/kg/injection, schedule: Q01DX005 (ip), vehicle: Klucel (hydroxypropylcellulose) (HPC) 92 % of control
